In PubChem BioAssay AID2060485 (Molecular Pharmacology Branch, DTP, NCI, 2025):
Values joined by “and” are separate entries in the source; they are usually repeats but may differ in a detail not shown here. Identical values can stand only once.

System: A375 multi-cell spheroids with HUVEC/MSC, viability
Assay: Anticancer human tumor A375 cell line growth inhibition [GQUAD];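 also: spheroids exposed to compounds for seven days before readout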
Conditions: for viability, T/C: stronger effect = lower value
Source text: DNA G-quadruplex Stabilizer Agents in Combinations in Complex Spheroids
A high-throughput screen of multi-cell type tumor spheroids was designed to identify active combinations of DNA G-quadruplex stabilizer agents and targeted small molecules. Complex spheroids include a stromal component modeled by human endothelial cells (HUVEC) and fibroblasts modeled by human mesenchymal stem cells (MSCs). The concentration ranges selected for each drug and investigational agent were based upon clinically achievable concentrations if the clinical Cmax of the agent was known.
Compounds. The drugs and investigational agents: pidnarulex (CX-5461; NSC782164), APTO-253 (NSC789042), BRACO-19 (NSC847499), peposertib (NSC802822), ceralasertib (NSC780249), elimusertib (NSC800525), camonsertib (NSC841442), AZD-1390 (NSC803789), olaparib (NSC753686), talazoparib (NSC767125), ART-558 (NSC835418), sotorasib (NSC818433), MRTX-1133 (NSC836407), SN-38 (NSC673596), topotecan (NSC609699), etoposide (NSC141540), doxorubicin (NSC123127), gemcitabine (NSC613327), 5-fluorouracil (NSC19893), paclitaxel (NSC125973), vemurafenib (NSC761431), panobinostat (NSC761190), R-306465 (JNJ-16241199; NSC773264), adavosertib (NSC754352), TP-3654 (NSC805149), carboplatin (NSC241240), KSQ-4279 (NSC840948), and staurosporine (NSC755774) were obtained from the National Cancer Institute (NCI) Developmental Therapeutics Program Chemical Repository (34). The FDA-approved anticancer drug set is available from the NCI Developmental Therapeutics Program. […] The stock solutions were prepared in dimethyl sulfoxide (DMSO, Sigma-Aldrich, St. Louis, MO, cat. D2650) at 800-fold the tested concentration and stored at -70 degrees C prior to their use. All drugs and investigational agents were tested over a range starting from a high concentration at or near the clinical Cmax and decreasing in half-log increments. If the clinical Cmax for an agent had not been determined, the highest concentration tested was 10 microM.
2.3 Cell Culture. All cells were maintained in an incubator at 37 degrees C and 5% CO2 with 95% humidity. The PDC lines were cultured according to standard operating procedures established by the NCI PDMR. All PDCs were thawed and cultured in Matrigel-coated flasks prepared with a working solution of 1X Ham's F-12 nutrient mix, without supplementation (Invitrogen, cat. 11765054), 100 U/mL penicillin-streptomycin (Invitrogen, cat. 15140122), and 2.5% Matrigel (Corning Inc., cat. 354248) for the first three passages. The 857933-349-R-J2-PDC line was cultured in 6C/Colon 1B media, which includes advanced DMEM/F-12 (Thermo Fisher Scientific, cat. 12634028), 10 mM HEPES (Thermo Fisher Scientific, cat. 15630080), 1X GlutaMAX supplement (Thermo Fisher Scientific, cat. 35050061), 0.1 mg/mL primocin (InvivoGen, cat. ant-pm-2), 10% defined fetal bovine serum, heat inactivated (HyClone Laboratories Inc., cat. SH30070.03HI), 50% L-WRN conditioned media (ATCC, cat. CRL-3276), 1.25 mM N-Acetyl-L-cysteine (Sigma-Aldrich, cat. A9165), 10 mM nicotinamide (Sigma-Aldrich, cat. N0636), 1X B-27 supplement (Thermo Fisher Scientific, cat. 17504044), 1X N-2 supplement (Thermo Fisher Scientific, cat. 17502048), 10 microM Y-27632 dihydrochloride (Tocris Bioscience, cat. 1254), and 50 ng/mL human EGF recombinant protein (Thermo Fisher Scientific, cat. PHG0311). The 485176-168-R4-J1-PDC line was cultured in Panc media, which includes all 6C/Colon 1B media components plus 100 ng/mL human FGF-10 (Thermo Fisher Scientific, cat. 100-26), 500 nM SB-431542 (Selleckchem, cat. S1067), and gastrin (Tocris, cat. 3006).
[…]

[1] = curve of first compound, second compound 0.0316 µM
[2] = curve of first compound, second compound 0.1 µM
[3] = curve of first compound, second compound 0.316 µM
[4] = curve of first compound, second compound 1 µM
[5] = curve of first compound, second compound 3.16 µM
[6] = curve of first compound, second compound 10 µM
[7] = second compound 0.0316 µM, first compound 0.0316 µM
[8] = second compound 0.0316 µM, first compound 0.1 µM
[9] = second compound 0.0316 µM, first compound 0.316 µM
[10] = second compound 0.0316 µM, first compound 1 µM
[11] = second compound 0.0316 µM, first compound 3.16 µM
[12] = second compound 0.0316 µM, first compound 10 µM
[13] = second compound 0.1 µM, first compound 0.0316 µM
[14] = second compound 0.1 µM, first compound 0.1 µM
[15] = second compound 0.1 µM, first compound 0.316 µM
[16] = second compound 0.1 µM, first compound 1 µM
[17] = second compound 0.1 µM, first compound 3.16 µM
[18] = second compound 0.1 µM, first compound 10 µM
[19] = second compound 0.316 µM, first compound 0.0316 µM
[20] = second compound 0.316 µM, first compound 0.1 µM
[21] = second compound 0.316 µM, first compound 0.316 µM
[22] = second compound 0.316 µM, first compound 1 µM
[23] = second compound 0.316 µM, first compound 3.16 µM
[24] = second compound 0.316 µM, first compound 10 µM
[25] = second compound 1 µM, first compound 0.0316 µM
[26] = second compound 1 µM, first compound 0.1 µM
[27] = second compound 1 µM, first compound 0.316 µM
[28] = second compound 1 µM, first compound 1 µM
[29] = second compound 1 µM, first compound 3.16 µM
[30] = second compound 1 µM, first compound 10 µM
[31] = second compound 3.16 µM, first compound 0.0316 µM
[32] = second compound 3.16 µM, first compound 0.1 µM
[33] = second compound 3.16 µM, first compound 0.316 µM
[34] = second compound 3.16 µM, first compound 1 µM
[35] = second compound 3.16 µM, first compound 3.16 µM
[36] = second compound 3.16 µM, first compound 10 µM
[37] = second compound 10 µM, first compound 0.0316 µM
[38] = second compound 10 µM, first compound 0.1 µM
[39] = second compound 10 µM, first compound 0.316 µM
[40] = second compound 10 µM, first compound 1 µM
[41] = second compound 10 µM, first compound 3.16 µM
[42] = second compound 10 µM, first compound 10 µM

With `Cc1cnc(CNC(=O)c2c(=O)c3ccc(N4CCCN(C)CC4)nc3n3c2sc2ccccc23)cn1` the viability, T/C (compound 0.0316 µM) was 101% [middle of 11 runs], the viability, T/C (compound 0.1 µM) was 82.4% [middle of 11 runs] and the viability, T/C (compound 0.316 µM) was 57.1% [middle of 11 runs]. The viability, T/C (compound 1 µM) was 42.3% [middle of 11 runs], the viability, T/C (compound 3.16 µM) was 37.6% [middle of 11 runs] and the viability, T/C (compound 10 µM) was 31.1% [middle of 11 runs]. For the same compound, the IC50 (compound alone, run of 03/18/2024) was 582 nM [middle of 11 runs].
For `Cc1cccc(N(C)C(=O)C2C(O)CCN2c2nc(C)cc(C(F)(F)F)c2C#N)c1` (stereo not drawn) + Cc1cnc(CNC(=O)c2c(=O)c3ccc(N4CCCN(C)CC4)nc3n3c2sc2ccccc23)cn1, the IC50 [1] was over 10 µM, the IC50 [2] was over 10 µM and the IC50 [3] was over 10 µM. The IC50 [4] was under 0.0316 µM, the IC50 [5] was under 0.0316 µM and the IC50 [6] was under 0.0316 µM. For the same compound, the viability, T/C [7] was 104%, the viability, T/C [8] was 89.9% and the viability, T/C [9] was 104%. The viability, T/C [10] was 107%, the viability, T/C [11] was 99.3% and the viability, T/C [12] was 122%. For the same compound, the viability, T/C [13] was 75.8%, the viability, T/C [14] was 69.7% and the viability, T/C [15] was 77.2%. For the same compound, the viability, T/C [16] was 76%, the viability, T/C [17] was 78.8% and the viability, T/C [18] was 71.8%. It also gave a viability, T/C [19] of 55.6%, a viability, T/C [20] of 52% and a viability, T/C [21] of 50.4%. It also gave a viability, T/C [22] of 52.2%, a viability, T/C [23] of 63.3% and a viability, T/C [24] of 60.9%. It also gave a viability, T/C [25] of 42.9%, a viability, T/C [26] of 41.6% and a viability, T/C [27] of 42.8%. For the same compound, the viability, T/C [28] was 41.8%, the viability, T/C [29] was 49.2% and the viability, T/C [30] was 38.4%. It also gave a viability, T/C [31] of 30.5%, a viability, T/C [32] of 31.4% and a viability, T/C [33] of 41%. For the same compound, the viability, T/C [34] was 31.8%, the viability, T/C [35] was 35.6% and the viability, T/C [36] was 38.4%. It also gave a viability, T/C [37] of 31.8%, a viability, T/C [38] of 29.8% and a viability, T/C [39] of 33.9%. It also gave a viability, T/C [40] of 33.1%, a viability, T/C [41] of 35.4% and a viability, T/C [42] of 32.1%.
`C=CC(=O)N1CCN(c2nc(=O)n(-c3c(C)ccnc3C(C)C)c3nc(-c4c(O)cccc4F)c(F)cc23)C(C)C1` (stereo not drawn) + CN(C)c1ccc(Nc2c3ccc(NC(=O)CCN4CCCC4)cc3nc3cc(NC(=O)CCN4CCCC4)ccc23)cc1 was tested, and the IC50 [1] was over 10 µM, the IC50 [2] was over 10 µM and the IC50 [3] was over 10 µM. It also gave an IC50 [4] of over 10 µM, an IC50 [5] of over 10 µM and an IC50 [6] of over 10 µM. The viability, T/C [7] was 107%, the viability, T/C [8] was 95.4% and the viability, T/C [9] was 94.9%. The viability, T/C [10] was 95.1%, the viability, T/C [11] was 110% and the viability, T/C [12] was 123%. For the same compound, the viability, T/C [13] was 108%, the viability, T/C [14] was 96.8% and the viability, T/C [15] was 103%. It also gave a viability, T/C [16] of 95.4%, a viability, T/C [17] of 98.6% and a viability, T/C [18] of 119%. It also gave a viability, T/C [19] of 95.1%, a viability, T/C [20] of 94.7% and a viability, T/C [21] of 90.6%. It also gave a viability, T/C [22] of 101%, a viability, T/C [23] of 101% and a viability, T/C [24] of 128%. The viability, T/C [25] was 97.7%, the viability, T/C [26] was 92.2% and the viability, T/C [27] was 94.8%. The viability, T/C [28] was 102%, the viability, T/C [29] was 109% and the viability, T/C [30] was 133%. It also gave a viability, T/C [31] of 98.7%, a viability, T/C [32] of 90.7% and a viability, T/C [33] of 92.3%. For the same compound, the viability, T/C [34] was 93.4%, the viability, T/C [35] was 103% and the viability, T/C [36] was 126%. The viability, T/C [37] was 99.9%, the viability, T/C [38] was 92.2% and the viability, T/C [39] was 99.8%. The viability, T/C [40] was 100%, the viability, T/C [41] was 108% and the viability, T/C [42] was 107%.
For `CC1COCCN1c1cc(C2(O)CC3CCC(C2)O3)c2cnn(-c3ccn[nH]3)c2n1` (stereo not drawn), the viability, T/C (compound 0.0316 µM) was 117% and 107% and 101%, the viability, T/C (compound 0.1 µM) was 73.7% and 86.2% and 65.1% and the viability, T/C (compound 0.316 µM) was 47.9% and 53.4% and 35.1%. For the same compound, the viability, T/C (compound 1 µM) was 19.1% and 20.1% and 14.9%, the viability, T/C (compound 3.16 µM) was 12.1% and 10.6% and 9.5% and the viability, T/C (compound 10 µM) was 8.52% and 8.96% and 7.33%. For the same compound, the IC50 (curve of compound) was 0.25 µM and 0.334 µM and 0.176 µM.
